Residues, ends and D or L forms follow the SMILES beside them.
Legend:
Format in all cases: cell-based
[1] = test system: HEK293; assay: In vitro cytotoxicity assay (CCK8 cell viability), native HEK293 cells (no target expressed); conditions: Homo sapiens, HEK293, 72 h
Procedure: (§1) Cells were seeded in Nunclon Delta Surface 96 well plates at 1000 (HEK293 and HEK293/PRLR) or 6000 (T47D) cells per well, and cells were grown overnight in complete growth media. For cell viability curves, serially diluted conjugates or free representative payloads were added to the cells at final concentrations ranging from 100 nM to 5 pM and incubated for 3 days. To measure viability, cells were incubated with CCK8 (Dojindo) for the final 1-3 hours and the absorbance at 450 nm (OD450) was determined on a Victor X4 (PerkinElmer). Background OD450 levels (CCK8) from digitonin ([…]) treated cells were subtracted from all wells and viability is expressed as a percentage of the untreated controls. IC50 values were determined from a four-parameter logistic equation over a 10-point response curve (GraphPad Prism). Maytansinoid conjugate curves and IC50 values are corrected for payload equivalents based on the UV DAR value. For the auristatin (MMAF) conjugate, the IC50 values are assigned a DAR of 1 (i.e., equal to antibody concentration) since a good estimate cannot be obtained by UV or mass spectrometry.

[2] = test system: HEK293/hPRLR; assay: In vitro cytotoxicity assay (CCK8 cell viability), engineered HEK293/hPRLR cells; conditions: Homo sapiens, HEK293, 72 h
Procedure: as §1

[3] = test system: T47D; assay: In vitro cytotoxicity assay (CCK8 cell viability), endogenous cell line T47D; conditions: Homo sapiens, 72 h
Procedure: as §1

Measured: IC50

CC[C@H](C)[C@@H]([C@@H](CC(=O)N1CCC[C@H]1[C@H](OC)[C@@H](C)C(=O)N[C@@H](Cc1ccccc1)C(=O)O)OC)N(C)C(=O)[C@@H](NC(=O)[C@@H](NC)C(C)C)C(C)C [compound 27, Monomethyl Auristatin F] (HELM PEPTIDE1{[meV].V.[CC[C@H](C)[C@@H]([C@@H](CC(=O)[*:2])OC)N(C)[*:1]].[CO[C@H]([C@@H](C)C(=O)[*:2])[C@@H]1CCCN1[*:1]].F}$$$$V2.0)
> 0.1 µM: all assays above
